The data set in a line: Clinical follow-up of treated mice (body weight, water consumption). The data set is classed as in vivo, NMRI nude mice. As to the method: 45 female NMRI nude mice, 6 weeks old.
Clinical follow-up: animals weight and tumor volume: 2-3 times a week.
Hela and Cal33 Cell Lines • cumulative dose of 20 mg (5 mg/mouse/inj repeated 1 day/2 for 8 days (4 times)) Panc-1 cell line • cumulative dose of […] (9 mg/mouse/injection repeated 1 day/2 for 21 days (11 times))
Hela Cell Lines • cumulative dose of 200 mg per mouse: 25 mg/day (8 mL/day @ 3.13 mg/mL) over 8 days
Cal33 Cell Lines • cumulative dose of 400 mg per mouse: 50 mg/day (8 mL/day @ 6.25 mg/mL) over 8 days
Panc-1 Cell Line • cumulative dose of 200 mg per mouse: 9.5 mg/day (8 mL/day @ 1.19 mg/mL) over 21 days

As to `[N-]=[N+]=NC[C@H]1OC(O)[C@@H](O)[C@@H]1O` (stereo partly drawn) [Ara-N3, 5-azido-5-deoxy-D-arabinofuranose], the “water consumption of the mice” value (Ara-N3 in drinking water up to 6.25 mg/mL) is listed as “did not alter the water consumption”. The body weight loss entry runs as follows: (treatment by intravenous injections) “did not induce any body weight loss”; (treatment in drinking water) “did not induce any body weight loss”.
